According to patent US20190175646A1, “METHODS AND COMPOSITIONS RELATING TO THE TREATMENT OF BENIGN SKIN TUMORS” (THE GENERAL HOSPITAL CORPORATION D/B/A MASSACHUSETTS …, priority 2015, published 2019):

System: SK cells
Test: SK cell viability (Alamar blue absorbance assay)
Assay type: cell-based, human
Conditions: indicated concentrations, 48 hours
Experimental: FIG. 1 depicts a graph in which SK cells were treated with DSF and CuCl2 (indicated concentrations) for 48 hours and relative cellular viability was measured using Alamar blue (absorbance based) assay. A443654 Akt inhibitor was used as a control.
FIG. 2 depicts a graph in which SK cells and normal human keratinocytes were treated with DSF and CuCl2 (indicated concentrations) for 48 hours and relative cellular viability was measured using Alamar blue (absorbance based) assay. A443654 Akt inhibitor was used as a control.
FIG. 4 depicts a graph of SK cell viability after treatment with DSF and/or Cu^2+. A443654 Akt inhibitor was used as a control.
FIG. 5 depicts a graph of SK cell viability after treatment with DSF and/or Zn^2+. A443654 Akt inhibitor was used as a control.
FIGS. 8 and 9 depict graphs of SK cell viability after treatment with pyrithione and/or Cu^2+. A443654 Akt inhibitor was used as a control. Cells from different donors were used for each experiment

COc1ccc(C2=N[C@@H](c3ccc(Cl)cc3)[C@@H](c3ccc(Cl)cc3)N2C(=O)N2CCNC(=O)C2)c(OC(C)C)c1 [nutlin-3a]
effect on SK cell viability: impair SK viability
